Reference: patent US10358436B2, “Kinase inhibitors and method of treating cancer” (University Health Network, priority 2010, dated 2019)
Like-named read-outs stand apart in the source and are kept apart here.

Key:
Assay type in all cases: biochemical
[1] = molecular target: human PLK4 (Homo sapiens (Human), UniProt O00444); test: PLK4 inhibition assay (indirect ELISA)
Method: PLK4 activity was measured using an indirect ELISA detection system. […] The colourimetric reaction was allowed to continue for 5 minutes, followed by addition of stop solution (0.5 N sulphuric acid), and quantified by detection at 450 nm with either a monochromatic or filter based plate reader (Molecular Devices M5 or Beckman DTX880, respectively).
Compounds were pre-incubated in the presence of enzyme for 15 minutes prior to addition of ATP and the activity remaining quantified using the above described activity assay. […] The IC50 value was determined using a non-linear 4 point logistic curve fit (XLfit4, IDBS) with the formula; (A+(B/(1+((x/C)^D)))), where A=background value, B=range, C=inflection point, D=curve fit parameter.

[2] = molecular target: Aurora A (Homo sapiens (Human), UniProt O14965); test: Aurora A inhibition assay (Z-Lyte)
[3] = molecular target: Aurora B (Homo sapiens (Human), UniProt Q96GD4); test: Aurora B inhibition assay (Z-Lyte)
Chain of Aurora B (Q96GD4 whole entry): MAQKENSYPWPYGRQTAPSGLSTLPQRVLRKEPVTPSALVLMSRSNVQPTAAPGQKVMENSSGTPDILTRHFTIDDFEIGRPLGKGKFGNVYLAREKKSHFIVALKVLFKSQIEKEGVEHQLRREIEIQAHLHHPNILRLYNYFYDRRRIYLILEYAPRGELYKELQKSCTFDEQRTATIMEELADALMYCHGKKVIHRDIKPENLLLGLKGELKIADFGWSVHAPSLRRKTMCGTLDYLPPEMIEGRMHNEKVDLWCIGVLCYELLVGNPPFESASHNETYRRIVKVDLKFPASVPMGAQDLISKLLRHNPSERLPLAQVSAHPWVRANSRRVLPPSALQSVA
Method: Aurora B inhibition was determined using the Z-Lyte assay kit from Invitrogen. […] The % inhibition values were determined according to the manufacturer's directions and IC50 values were obtained using a non-linear 4 point logistic curve fit (XLfit4, IDBS)

[4] = molecular target: FLT3 (Homo sapiens (Human), UniProt P36888); test: Kinase selectivity assay (CEREP HTRF panel)
Chain of FLT3 (P36888 27-993): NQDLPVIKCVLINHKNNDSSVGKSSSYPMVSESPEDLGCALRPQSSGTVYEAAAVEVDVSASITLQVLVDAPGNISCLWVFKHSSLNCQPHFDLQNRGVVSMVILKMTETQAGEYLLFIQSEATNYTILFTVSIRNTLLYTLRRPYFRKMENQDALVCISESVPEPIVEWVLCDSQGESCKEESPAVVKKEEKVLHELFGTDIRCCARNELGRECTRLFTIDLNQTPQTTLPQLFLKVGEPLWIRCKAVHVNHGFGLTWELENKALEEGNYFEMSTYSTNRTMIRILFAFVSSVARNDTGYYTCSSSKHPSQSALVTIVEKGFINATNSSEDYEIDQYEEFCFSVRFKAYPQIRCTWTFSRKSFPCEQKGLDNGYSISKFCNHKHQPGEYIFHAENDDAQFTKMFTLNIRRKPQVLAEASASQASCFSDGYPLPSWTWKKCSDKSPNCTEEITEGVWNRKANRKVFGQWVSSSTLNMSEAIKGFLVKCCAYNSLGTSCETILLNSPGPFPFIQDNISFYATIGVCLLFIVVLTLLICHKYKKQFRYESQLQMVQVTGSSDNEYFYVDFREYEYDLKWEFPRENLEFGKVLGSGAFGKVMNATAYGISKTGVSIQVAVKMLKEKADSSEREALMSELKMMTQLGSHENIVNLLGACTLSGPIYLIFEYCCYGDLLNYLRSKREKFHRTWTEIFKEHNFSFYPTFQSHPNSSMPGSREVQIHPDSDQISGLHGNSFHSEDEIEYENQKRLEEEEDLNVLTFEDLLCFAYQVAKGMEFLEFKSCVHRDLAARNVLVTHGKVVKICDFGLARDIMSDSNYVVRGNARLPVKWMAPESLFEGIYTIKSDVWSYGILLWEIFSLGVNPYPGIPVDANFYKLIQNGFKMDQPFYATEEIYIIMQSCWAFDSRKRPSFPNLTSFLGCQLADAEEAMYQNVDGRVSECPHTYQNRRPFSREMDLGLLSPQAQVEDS

[5] = molecular target: KDR kinase (VEGFR2) (Homo sapiens (Human), UniProt P35968); test: Kinase selectivity assay (CEREP HTRF panel)
Chain of KDR kinase (VEGFR2) (P35968 20-1356): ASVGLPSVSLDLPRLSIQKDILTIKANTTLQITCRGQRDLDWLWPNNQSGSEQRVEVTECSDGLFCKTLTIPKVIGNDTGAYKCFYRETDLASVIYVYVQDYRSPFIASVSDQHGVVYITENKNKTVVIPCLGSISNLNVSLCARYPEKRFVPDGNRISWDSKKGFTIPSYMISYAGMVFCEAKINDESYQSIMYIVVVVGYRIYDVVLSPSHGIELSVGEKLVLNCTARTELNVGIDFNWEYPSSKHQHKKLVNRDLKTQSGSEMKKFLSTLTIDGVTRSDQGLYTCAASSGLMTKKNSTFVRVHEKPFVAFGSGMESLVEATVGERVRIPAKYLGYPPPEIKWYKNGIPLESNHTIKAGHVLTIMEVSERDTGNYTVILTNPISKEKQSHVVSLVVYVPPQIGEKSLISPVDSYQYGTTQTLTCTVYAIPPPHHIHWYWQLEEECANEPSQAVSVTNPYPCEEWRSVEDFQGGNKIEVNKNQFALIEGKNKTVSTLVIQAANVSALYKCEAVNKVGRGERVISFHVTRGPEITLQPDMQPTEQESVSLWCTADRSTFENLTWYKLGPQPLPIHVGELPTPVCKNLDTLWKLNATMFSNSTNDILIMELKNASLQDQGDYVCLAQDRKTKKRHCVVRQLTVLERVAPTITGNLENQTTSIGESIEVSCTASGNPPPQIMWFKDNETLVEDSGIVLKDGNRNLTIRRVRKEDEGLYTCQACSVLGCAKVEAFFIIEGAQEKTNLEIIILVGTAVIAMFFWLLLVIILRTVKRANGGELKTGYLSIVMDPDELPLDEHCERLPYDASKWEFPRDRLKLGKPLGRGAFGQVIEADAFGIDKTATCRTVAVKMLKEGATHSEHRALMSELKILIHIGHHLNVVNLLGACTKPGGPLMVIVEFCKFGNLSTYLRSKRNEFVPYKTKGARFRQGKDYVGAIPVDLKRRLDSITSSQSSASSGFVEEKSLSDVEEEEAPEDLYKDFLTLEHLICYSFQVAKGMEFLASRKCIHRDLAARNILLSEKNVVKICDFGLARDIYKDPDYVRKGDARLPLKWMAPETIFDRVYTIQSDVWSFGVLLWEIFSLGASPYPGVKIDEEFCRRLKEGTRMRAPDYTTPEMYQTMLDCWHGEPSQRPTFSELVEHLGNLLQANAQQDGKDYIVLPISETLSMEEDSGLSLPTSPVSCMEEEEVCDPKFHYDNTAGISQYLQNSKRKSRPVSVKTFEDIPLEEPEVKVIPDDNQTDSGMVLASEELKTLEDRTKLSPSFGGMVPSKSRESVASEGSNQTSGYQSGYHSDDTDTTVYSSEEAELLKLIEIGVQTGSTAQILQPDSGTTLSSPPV

Chain of Aurora A (O14965 whole entry): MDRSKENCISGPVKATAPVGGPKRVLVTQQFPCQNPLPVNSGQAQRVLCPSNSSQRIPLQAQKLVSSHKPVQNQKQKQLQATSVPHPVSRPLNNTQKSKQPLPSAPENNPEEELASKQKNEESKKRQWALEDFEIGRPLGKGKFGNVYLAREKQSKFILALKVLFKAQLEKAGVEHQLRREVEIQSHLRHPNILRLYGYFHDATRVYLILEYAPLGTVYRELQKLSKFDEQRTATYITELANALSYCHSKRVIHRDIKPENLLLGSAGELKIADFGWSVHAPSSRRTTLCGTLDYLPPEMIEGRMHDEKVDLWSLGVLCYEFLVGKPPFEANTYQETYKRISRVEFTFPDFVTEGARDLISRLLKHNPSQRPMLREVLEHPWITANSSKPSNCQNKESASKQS
Chain of human PLK4 (O00444 1-391): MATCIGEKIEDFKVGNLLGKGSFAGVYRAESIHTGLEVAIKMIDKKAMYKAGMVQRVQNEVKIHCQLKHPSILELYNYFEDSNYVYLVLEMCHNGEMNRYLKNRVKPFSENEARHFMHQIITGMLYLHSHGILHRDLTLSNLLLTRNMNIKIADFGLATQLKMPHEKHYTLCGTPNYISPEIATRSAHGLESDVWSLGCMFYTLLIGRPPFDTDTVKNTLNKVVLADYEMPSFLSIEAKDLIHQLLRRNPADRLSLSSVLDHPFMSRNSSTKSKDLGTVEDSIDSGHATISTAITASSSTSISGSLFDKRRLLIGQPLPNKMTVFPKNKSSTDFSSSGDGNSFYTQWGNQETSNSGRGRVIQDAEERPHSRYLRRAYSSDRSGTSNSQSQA

SMILES: COc1ccc2c(c1)[C@]1(C[C@H]1c1ccc3c(-c4ccc(N5CCNCC5)nc4)n[nH]c3c1)C(=O)N2 (relative stereo) [Example A21, 4-(5-(6-((1R*,2S*)-5′-Methoxy-2′-oxospiro[cyclopropane-1,3′-indoline]-2-yl)-1H-indazol-3-yl)pyridinium-2-yl)piperazine bis(2,2,2-trifluoroacetate)]
- IC50 ([1]; read-out: PLK4 IC50 Ranges): < 100 nM
- inhibition at 1 µM [2]: < 50%
- IC50 ([3]; read-out: Aurora B IC50 Ranges): < 100 nM

SMILES: CN1C(=O)[C@@]2(C[C@H]2c2ccc3c(/C=C/c4ccc(CN5CCCCC5)cc4)n[nH]c3c2)c2ccccc21 (relative stereo) [Example A95, (1R*,2S*)-(E)-1′-methyl-2-(3-(4-(piperidin-1-ylmethyl)styryl)-1H-indazol-6-yl)spiro[cyclopropane-1,3′-indolin]-2′-one 2,2,2-trifluoroacetate]
- IC50 ([1]; read-out: PLK4 IC50 Ranges): < 100 nM
- IC50 ([3]; read-out: Aurora B IC50 Ranges): < 100 nM

SMILES: Cc1cc(/C=C/c2n[nH]c3cc([C@@H]4C[C@@]45C(=O)Nc4ccccc45)ccc23)ccn1 (relative stereo) [Example A161, (1R*,2S*)-2-(3-((E)-2-(2-methylpyridin-4-yl)vinyl)-1H-indazol-6-yl)spiro[cyclopropane-1,3′-indolin]-2′-one]
- IC50 ([1]; read-out: PLK4 IC50 Ranges): < 100 nM
- inhibition at 1 µM [2]: > 50%
- IC50 ([3]; read-out: Aurora B IC50 Ranges): < 100 nM

SMILES: COc1ccc2c(c1)[C@]1(C[C@H]1c1ccc3c(-c4ccc(OCCN(C)C)cc4)n[nH]c3c1)C(=O)N2 (relative stereo) [Example A103, (1R*,2S*)-2-(3-(4-(2-(dimethylamino)ethoxy)phenyl)-1H-indazol-6-yl)-5′-methoxyspiro[cyclopropane-1,3′-indolin]-2′-one 2,2,2-trifluoroacetate]
- IC50 ([1]; read-out: PLK4 IC50 Ranges): < 100 nM
- inhibition at 1 µM [2]: < 50%
- IC50 ([3]; read-out: Aurora B IC50 Ranges): < 100 nM

SMILES: CCc1ccc2c(c1)[C@]1(C[C@H]1c1ccc3c(-c4ccc(N5CCN(C)CC5)cc4)n[nH]c3c1)C(=O)N2 (relative stereo) [Example A142, (1R*,2S*)-5′-ethyl-2-(3-(4-(4-methylpiperazin-1-yl)phenyl)-1H-indazol-6-yl)spiro[cyclopropane-1,3′-indolin]-2′-one 2,2,2-trifluoroacetate]
- IC50 ([1]; read-out: PLK4 IC50 Ranges): < 100 nM
- IC50 ([3]; read-out: Aurora B IC50 Ranges): < 100 nM

SMILES: CN(C)Cc1cccc(/C=C/c2n[nH]c3cc([C@@H]4C[C@@]45C(=O)N(CC(N)=O)c4ccccc45)ccc23)c1 (relative stereo) [Example A164, 2-((1R*,2S*)-(E)-2-(3-(3-((dimethylamino)methyl)styryl)-1H-indazol-6-yl)-2′-oxospiro[cyclopropane-1,3′-indoline]-1′-yl)acetamide 2,2,2-trifluoroacetate]
- IC50 ([1]; read-out: PLK4 IC50 Ranges): < 100 nM
- inhibition at 1 µM [2]: > 50%
- IC50 ([3]; read-out: Aurora B IC50 Ranges): < 100 nM

SMILES: O=C1Nc2ccccc2[C@]12C[C@H]2c1ccc2c(/C=C/c3ccc(N4CCNCC4)cc3)n[nH]c2c1 (relative stereo) [Example A91, (1R*,2S*)-(E)-2-(3-(4-(piperazin-1-yl)styryl)-1H-indazol-6-yl)spiro[cyclopropane-1,3′-indolin]-2′-one 2,2,2-trifluoroacetate]
- IC50 [1]: < 100 nM
- inhibition at 1 µM [2]: > 50%
- IC50 ([3]; read-out: Aurora B IC50 Ranges): < 100 nM

SMILES: CN(C)Cc1ccc(/C=C/c2n[nH]c3cc([C@@H]4C[C@@]45C(=O)Nc4ncccc45)ccc23)cc1 (relative stereo) [Example A172, (1R*,2S*)-(E)-2-(3-(4-((dimethylamino)methyl)styryl)-1H-indazol-6-yl)spiro[cyclopropane-1,3′-pyrrolo[2,3-b]pyridin]-2′(1′H)-one 2,2,2-trifluoroacetate]
- IC50 ([1]; read-out: PLK4 IC50 Ranges): < 100 nM
- IC50 ([3]; read-out: Aurora B IC50 Ranges): < 100 nM

SMILES: CN1C(=O)[C@@]2(C[C@H]2c2ccc3c(/C=C/c4ccc(N5CCNCC5)cc4)n[nH]c3c2)c2ccccc21 (relative stereo) [Example A89, (1R*,2S*)-(E)-1′-methyl-2-(3-(4-(piperazin-1-yl)styryl)-1H-indazol-6-yl)spiro[cyclopropane-1,3′-indolin]-2′-one 2,2,2-trifluoroacetate]
- IC50 [1]: < 100 nM
- inhibition at 1 µM [2]: > 50%
- IC50 [3]: < 100 nM

SMILES: CCN1CCN(c2ccc(-c3n[nH]c4cc([C@@H]5C[C@@]56C(=O)Nc5ccc(OC)cc56)ccc34)cc2)CC1 (relative stereo) [Example A98, (1R*,2S*)-2-(3-(4-(4-ethylpiperazin-1-yl)phenyl)-1H-indazol-6-yl)-5′-methoxyspiro[cyclopropane-1,3′-indolin]-2′-one 2,2,2-trifluoroacetate]
- IC50 [1]: < 100 nM
- inhibition at 1 µM [2]: < 50%
- IC50 ([3]; read-out: Aurora B IC50 Ranges): < 100 nM

SMILES: COc1ccc2c(c1)[C@]1(C[C@H]1c1ccc3c(-c4cccc(CO)c4)n[nH]c3c1)C(=O)N2 (relative stereo) [Example A43, (1R*,2S*)-2-(3-(3-(hydroxymethyl)phenyl)-1H-indazol-6-yl)-5′-methoxy spiro[cyclopropane-1,3′-indolin]-2′-one 2,2,2-trifluoroacetate]
- IC50 ([1]; read-out: PLK4 IC50 Ranges): < 100 nM
- inhibition at 1 µM [2]: < 50%
- IC50 ([3]; read-out: Aurora B IC50 Ranges): < 100 nM

SMILES: COc1ccc2c(c1)[C@]1(C[C@H]1c1ccc3c(-c4ccnc(N5CCN(C)CC5)c4)n[nH]c3c1)C(=O)N2 (relative stereo) [Example A37, (1R*,2S*)-5′-Methoxy-2-(3-(2-(4-methylpiperazin-1-yl)pyridin-4-yl)-1H-indazol-6-yl)spiro[cyclopropane-1,3′-indolin]-2′-one]
- IC50 ([1]; read-out: PLK4 IC50 Ranges): < 100 nM
- inhibition at 1 µM [2]: < 50%
- IC50 ([3]; read-out: Aurora B IC50 Ranges): < 100 nM

SMILES: COc1ccc2c(c1)[C@]1(C[C@H]1c1ccc3c(-c4ccc(N5CCN(C)CC5)cc4)n[nH]c3c1)C(=O)N2 (relative stereo) [Example A38, (1R*,2S*)-5′-Methoxy-2-(3-(4-(4-methylpiperazin-1-yl)phenyl)-1H-indazol-6-yl)spiro[cyclopropane-1,3′-indolin]-2′-one]
- IC50 [1]: < 100 nM
- inhibition at 1 µM [2]: < 50%
- IC50 ([3]; read-out: Aurora B IC50 Ranges): < 100 nM

SMILES: CN1CCN(c2ccc(/C=C/c3n[nH]c4cc([C@@H]5C[C@@]56C(=O)Nc5ccccc56)ccc34)cn2)CC1 (relative stereo) [Example A157, (1R*,2S*)-2-(3-((E)-2-(6-(4-methylpiperazin-1-yl)pyridin-3-yl)vinyl)-1H-indazol-6-yl)spiro[cyclopropane-1,3′-indolin]-2′-one bis-2,2,2-trifluoroacetate]
- IC50 ([1]; read-out: PLK4 IC50 Ranges): < 100 nM
- inhibition at 1 µM [2]: > 50%

SMILES: CN1CCN(c2ccc(-c3n[nH]c4cc([C@@H]5C[C@@]56C(=O)Nc5ccc(N)cc56)ccc34)cc2)CC1 (relative stereo) [Example A86, (1R*,2S*)-5′-amino-2-(3-(4-(4-methylpiperazin-1-yl)phenyl)-1H-indazol-6-yl)spiro[cyclopropane-1,3′-indolin]-2′-one]
- IC50 ([1]; read-out: PLK4 IC50 Ranges): < 100 nM
- inhibition at 1 µM [2]: > 50%
- IC50 ([3]; read-out: Aurora B IC50 Ranges): 100 to 1000 nM

SMILES: CN(C)Cc1ccc(/C=C/c2n[nH]c3cc([C@H]4C[C@@]45C(=O)Nc4ccccc45)ccc23)cc1 (relative stereo) [Example A26, (1R*,2R*)-(E)-2-(3-(4-((dimethylamino)methyl)styryl)-1H-indazol-6-yl)spiro[cyclopropane-1,3′-indolin]-2′-one 2,2,2-trifluoroacetate]
- inhibition at 10 µM [4]: 102%
- inhibition at 10 µM [5]: 58%

SMILES: COc1ccc2c(c1)[C@]1(C[C@H]1c1ccc3c(-c4ccc(N5CCN(C)CC5)cc4)n[nH]c3c1)C(=O)N2C (relative stereo) [Example A100, (1R*,2S*)-5′-methoxy-1′-methyl-2-(3-(4-(4-methylpiperazin-1-yl)phenyl)-1H-indazol-6-yl)spiro[cyclopropane-1,3′-indolin]-2′-one 2,2,2-trifluoroacetate]
- IC50 ([1]; read-out: PLK4 IC50 Ranges): < 100 nM
- inhibition at 1 µM [2]: < 50%
- IC50 ([3]; read-out: Aurora B IC50 Ranges): < 100 nM

SMILES: COc1ccc2c(c1)[C@]1(C[C@H]1c1ccc3c(-c4ccc(N5CCN(C)CC5)nc4)n[nH]c3c1)C(=O)N2C (relative stereo) [Example A104, (1R*,2S*)-5′-methoxy-1′-methyl-2-(3-(6-(4-methylpiperazin-1-yl)pyridin-3-yl)-1H-indazol-6-yl)spiro[cyclopropane-1,3′-indolin]-2′-one bis(2,2,2-trifluoroacetate)]
- IC50 ([1]; read-out: PLK4 IC50 Ranges): < 100 nM
- inhibition at 1 µM [2]: < 50%
- IC50 ([3]; read-out: Aurora B IC50 Ranges): < 100 nM

SMILES: CN1CCN(c2ccc(-c3n[nH]c4cc([C@@H]5C[C@@]56C(=O)N(C)c5ccccc56)ccc34)cn2)CC1 (relative stereo) [Example A93, (1R*,2S*)-1′-methyl-2-(3-(6-(4-methylpiperazin-1-yl)pyridin-3-yl)-1H-indazol-6-yl)spiro[cyclopropane-1,3′-indolin]-2′-one bis(2,2,2-trifluoroacetate)]
- IC50 ([1]; read-out: PLK4 IC50 Ranges): < 100 nM
- inhibition at 1 µM [2]: > 50%
- IC50 ([3]; read-out: Aurora B IC50 Ranges): < 100 nM

SMILES: CN1CCN(c2ccc(-c3n[nH]c4cc([C@@H]5C[C@@]56C(=O)Nc5ccc(C(F)(F)F)cc56)ccc34)cc2)CC1 (relative stereo) [Example A170, (1R*,2S*)-2-(3-(4-(4-methylpiperazin-1-yl)phenyl)-1H-indazol-6-yl)-5′-(trifluoromethyl)spiro[cyclopropane-1,3′-indolin]-2′-one 2,2,2-trifluoroacetate]
- IC50 ([1]; read-out: PLK4 IC50 Ranges): 100 to 1000 nM

SMILES: COc1ccc2c(c1)[C@]1(C[C@H]1c1ccc3c(/C=C/c4ccc(N5CCNCC5)nc4)n[nH]c3c1)C(=O)N2 (relative stereo) [Example A163, (1R*,2S*)-5′-methoxy-2-(3-((E)-2-(6-(piperazin-1-yl)pyridin-3-yl)vinyl)-1H-indazol-6-yl)spiro[cyclopropane-1,3′-indolin]-2′-one 2,2,2-trifluoroacetate]
- IC50 ([1]; read-out: PLK4 IC50 Ranges): < 100 nM
- inhibition at 1 µM [2]: > 50%
- IC50 ([3]; read-out: Aurora B IC50 Ranges): < 100 nM
